Drawing on US20150150851A1, “FORMULATION AND DOSING OF HSP90 INHIBITORY COMPOUNDS” (Synta Pharmaceuticals Corp., priority 2010, published 2015), this text covers solubility for one compound.

Values after ≈ are worked out from the molar mass of the structure shown.

A short description of this series: Equilibrium solubility in polysorbate 80 / PEG 300 mixtures (72 hours, HPLC). The series is classed as physicochemical. The settings on record: organic solvent or mixture, thermodynamic from solid.

For `CC(C)c1cc(-c2n[nH]c(=O)n2-c2ccc3c(ccn3C)c2)c(O)cc1O` [Compound 1, 3-(2,4-dihydroxy-5-isopropyl-phenyl)-4-(1-methyl-indol-5-yl)-5-hydroxy-[1,2,4] triazole], the solubility at 72 h is, setting by setting: (polysorbate 80 / PEG 300 mixture, 40% PEG 300, 60% polysorbate 80, equilibrated 72 hours) 76.1 mg/mL (≈ 209 mM); (polysorbate 80 / PEG 300 mixture, 45% PEG 300, 55% polysorbate 80, equilibrated 72 hours) 84.7 mg/mL (≈ 232 mM); (polysorbate 80 / PEG 300 mixture, 50% PEG 300, 50% polysorbate 80, equilibrated 72 hours) 96.2 mg/mL (≈ 264 mM); (polysorbate 80 / PEG 300 mixtures, in all three polysorbate 80 / PEG 300 solutions) > 75 mg/mL.
